From article PMC10974930, “Synthesis and Antioxidant Activities of Novel Pyrimidine Acrylamides as Inhibitors of Lipoxygenase: Molecular Modeling and In Silico Physicochemical Studies” (Molecules, 2024)

Biological target: T1, soybean lipoxygenase (Glycine max, UniProt P08170)
T1 construct: gene LOX1.1
T1 sequence (P08170 1-839): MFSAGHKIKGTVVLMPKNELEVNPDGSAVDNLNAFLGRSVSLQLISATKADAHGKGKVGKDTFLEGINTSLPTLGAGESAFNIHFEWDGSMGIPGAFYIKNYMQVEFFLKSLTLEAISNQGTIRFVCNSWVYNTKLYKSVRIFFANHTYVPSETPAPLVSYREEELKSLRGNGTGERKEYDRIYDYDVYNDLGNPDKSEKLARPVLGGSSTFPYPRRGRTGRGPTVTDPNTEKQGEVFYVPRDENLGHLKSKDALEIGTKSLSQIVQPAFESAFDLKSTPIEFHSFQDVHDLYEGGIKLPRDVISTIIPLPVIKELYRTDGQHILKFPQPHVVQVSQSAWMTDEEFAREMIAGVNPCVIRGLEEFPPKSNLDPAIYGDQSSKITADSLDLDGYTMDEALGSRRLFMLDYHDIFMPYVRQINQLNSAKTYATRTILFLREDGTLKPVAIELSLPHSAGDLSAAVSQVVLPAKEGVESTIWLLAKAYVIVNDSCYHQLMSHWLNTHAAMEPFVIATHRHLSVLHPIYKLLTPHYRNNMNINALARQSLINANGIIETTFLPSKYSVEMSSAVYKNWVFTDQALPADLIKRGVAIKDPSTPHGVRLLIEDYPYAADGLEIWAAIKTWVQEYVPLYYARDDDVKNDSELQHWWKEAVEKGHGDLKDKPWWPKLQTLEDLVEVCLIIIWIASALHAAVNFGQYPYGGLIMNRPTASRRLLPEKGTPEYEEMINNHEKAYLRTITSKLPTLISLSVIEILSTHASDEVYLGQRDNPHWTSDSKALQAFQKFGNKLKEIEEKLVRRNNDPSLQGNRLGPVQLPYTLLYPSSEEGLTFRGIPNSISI
Test: UV assay at […] nm of sodium linoleate oxidation by soybean lipoxygenase (Sigma)
Type: biochemical
Details: read-out: % Inhibition of LOX 100 μM or IC50 (μM) *

Structure (SMILES) | IC50
O=Nc1c(NC(=O)/C=C/c2cccs2)[nH]c(N2CCCCC2)nc1=O [compound 5, (E)-N-(5-nitroso-6-oxo-2-(piperidin-1-yl)-3,6-dihydropyrimidin-4-yl)-3-(thiophen-2-yl)acrylamide] | 10.7 µM
O=Nc1c(NC(=O)/C=C/c2cccc3ccccc23)[nH]c(N2CCCCC2)nc1=O [compound 9, (E)-3-(naphthalen-1-yl)-N-(5-nitroso-6-oxo-2-(piperidin-1-yl)-3,6-dihydropyrimidin-4-yl)acrylamide] | 1.1 µM
